# Test results as given in patent US20240391964A1, “COMPOSITIONS AND METHODS FOR THE TREATMENT OF CANCER” (The University of Western Australia, priority 2020, published 2024).
# Columns and labels:
# [1] = test system: T11 cells; assay: Cell viability assay of melittin variants, T11; type: cell-based, murine; conditions: t-test p=0.652
# Procedure: FIG. 5 presents the lack of anticancer activity of DEDE-melittin, and the breast cancer cell selectivity of the melittin fusion peptide RGD1-melittin. FIG. 5A presents cell viability assays of TNBC (SUM159) and HER2-enriched (SKBR3) cells treated with DEDE-melittin for 24 hours. FIG. 5B presents cell viability assays of T11 cells treated with melittin, RGD1-melittin, SV40-melittin, TAT-melittin and DEDE-melittin. FIG. 5C presents cell viability assays of human dermal fibroblasts (HDFa) and SUM159 treated with melittin (top) and RGD1-melittin (bottom) for 24 hours.
# To assess the functional role of the positive (K21RKR24) sequence (SEQ ID NO: 4) in the C-terminus of melittin, a negatively charged melittin peptide (D21EDE24-melittin; SEQ ID NO: 6) was designed. These negative residues were predicted to disrupt the binding of melittin with the plasma membrane. […] However, the potency of melittin and SV40-melittin were greater than TAT-melittin, which could be due to the larger size of TAT.
# [2] = test system: SUM159 cells; conditions: 24 hours, mean±SEM
# Procedure: To assess anticancer efficacy and selectivity, both venom from European honeybees collected in Perth, Australia and melittin peptide were evaluated in dose-response assays in a panel of cell lines representative of the intrinsic breast cancer subtypes and in non-transformed cells.
# [3] = test system: SUM159 cells; assay: Immunofluorescence subcellular localization with anti-melittin antibody; type: cell-based, human; conditions: 30 minutes, IC50 concentrations
# [4] = test system: T11, OVCAR3 and COV362 cells; assay: Cell viability, RGD1-melittin with cisplatin; type: cell-based; conditions: 24 h, non-constant ratio
# Procedure: (§1) Cell viability assays of T11, OVCAR3, and COV362 cells treated with RGD1-melittin alone and in combination with cisplatin were performed. Cells were seeded overnight at a density of 5000 cells/p96-well plate and treated with active RGD1-melittin alone or combined with […] and administered at concentrations indicated in a non-constant ratio in the respective cell lines for 24 h. Cell viability was assessed using the CellTiter-Glo® assay.
# (§2) The combination effect for different fractions of cells impacted in each combination were calculated using the Chou and Talalay algorithm included in the freely available CompuSyn software. Combination index (CI)<1 means synergism, CI=1 means additive and CI>1 means antagonism.
# [5] = test system: T11, OVCAR3, SUM159 and SKBR3 cells; assay: Cell viability, RGD1-melittin with docetaxel; type: cell-based; conditions: 24 h, non-constant ratio
# Procedure: as §1, with “OVCAR3, SUM159” for “OVCAR3,”, “SKBR3” for “COV362”, “docetaxel” for “cisplatin”
# as §2
# [6] = test system: T11 cells; assay: Cell viability, combination with omomyc; type: cell-based, murine; conditions: T11, 24 hours
# Procedure: FIG. 16 presents the results of cell viability assays of T11 breast cancer cells treated with melittin or RGD1-melittin alone and in combination with omomyc for 24 hours. Representative plots of the combination treatments are presented as mean±SEM.
# The murine p53 TNBC cell line T11 was treated with omomyc in combination with either melittin or RGD1-melittin, and cell viability assays were conducted to determine the combination effect between the treatments (FIG. 16).
# [7] = test system: PD-L1 in T11, SUM159 and SKBR3 cells; assay: qRT-PCR of PD-L1 expression; type: cell-based; conditions: 24 h at IC50; p<0.005 T11, p<0.05 SUM159, p<0.005 SKBR3
# Procedure: The level of PD-L1 expression was also measured in T11, SUM159 and SKBR3 treated with active RGD1-melittin and mutant RGD1-melittin peptides, or vehicle treated only, using qRT-PCR.
# Cells were seeded overnight at a density of 3×105 in a p6-well plate. […] Cells were washed once with PBS before RNA was extracted from the cells using QIAzol Lysis. Reagent (QIAGEN) according to manufacturer's instructions. 500 ng of purified total RNA was used as the template for cDNA synthesis using the High Capacity cDNA Reverse Transcription Kit (Applied Biosystems). Relative quantification of PD-L1 transcript expression was obtained by quantitative real-time PCR (qRT-PCR) using fluorescent TaqMan probes (Applied Biosystems) and run on the ViiA 7TM Real-Time PCR machine (Applied Biosystems). Data were analysed by QuantStudio Real-Time PCR Software (Applied Biosystems) and results were expressed as fold change compared to untreated cells, respectively, after normalization against the GAPDH mRNA levels.
# [8] = test system: Ki-67 and PD-L1 in T11, SUM159 and SKBR3 cells; assay: Immunofluorescence of Ki-67 and PD-L1; type: cell-based; conditions: 24 h at IC50 concentrations, all three cell lines
# Procedure: The expression of PD-L1 of TNBC cells (T11 and SUM159) and HER2-enriched breast cancer cells (SKBR3) treated with active RGD1-melittin and mutant RGD1-melittin (DEDE RGD1-melittin) was measured using immunofluorescence.
# Cells were seeded overnight on coverslips at a density of 3×105 in a p24-well plate coated with poly-L-lysine (Sigma-Aldrich) for 20 min and then washed twice with purified water. […] The cells were washed three times with PBS and then incubated with a goat α-mouse secondary Alexa Fluor 488-conjugated antibody (Thermo Fisher Scientific #A11001, 1:500) and Hoechst-33258 (1:5000) in PBS for 1 h at room temperature. After three more washes of PBS, the coverslip containing cells were mounted onto glass […] with SlowFade Diamond Antifade Mountant (Thermo Fisher Scientific). Slides were imaged using the confocal fluorescence Nikon Ti inverted microscope. Images were taken at 40× magnification and processed using ImageJ.
# [9] = test system: SUM159 cells; assay: Cleaved caspase-3 immunoblot; type: cell-based, human; conditions: 24 hours
# [10] = test system: T11 cells; assay: Cell viability, combination with docetaxel; type: cell-based, murine; conditions: T11, 48 hours
# Procedure: FIG. 15 presents the results of cell viability assays of T11 breast cancer cells treated with melittin or RGD1-melittin alone and in combination with docetaxel for 48 hours. Representative plots of the combination treatments are presented as mean±SEM.
# The murine p53 TNBC cell line T11 was treated with docetaxel in combination with either melittin or RGD1-melittin, and cell viability assays were conducted to determine the combination effect between the treatments (FIG. 15).
# [11] = test system: OVCAR3 cells; type: cell-based
# Procedure: (§3) The OVCAR3 and COV362 ovarian cancer cell lines were treated with active RGD1-melittin and mutant RGD1-melittin (DEDE-RGD1-melittin). The COV362 cells were cultured in DMEM low glucose medium supplemented with 10% FBS. The OVCAR3 cells were grown in RPMI medium supplemented with 20% FBS. Cells were seeded overnight at a density of 5000 cells/p96-well plate and treated with active RGD1-melittin and mutant RGD1-melittin (RGD1-DEDE melittin), for 24 h at concentrations up to 20 µM. After treatments, cell viability was assessed using the CellTiter-Glo® assay according to the manufacturer's protocol (Promega; NSW, Australia). Luminescence signals were measured using the EnVision Multilabel Plate Reader (PerkinsElmer Inc.; Waltham, MA, USA). IC50s were calculated and transformed 95% confidence intervals provided by GraphPad Prism 6 software analysis (GraphPad Software Inc., San Diego, CA, USA).
# [12] = test system: COV362 cells; type: cell-based
# Procedure: as §3
smiles,measurement,setting,value
CC[C@H](C)[C@H](NC(=O)CNC(=O)[C@H](CCCCN)NC(=O)[C@H](CCCCN)NC(=O)[C@H](CC(C)C)NC(=O)[C@H](CCCNC(=N)N)NC(=O)CNC(=O)[C@H](CC(C)C)NC(=O)[C@H](CC(=O)O)NC(=O)CNC(=O)[C@H](CCCNC(=N)N)NC(=O)CNC(=O)[C@@H](N)Cc1c[nH]cn1)C(=O)NCC(=O)N[C@@H](C)C(=O)N[C@H](C(=O)N[C@@H](CC(C)C)C(=O)N[C@@H](CCCCN)C(=O)N[C@H](C(=O)N[C@@H](CC(C)C)C(=O)N[C@H](C(=O)N[C@H](C(=O)NCC(=O)N[C@@H](CC(C)C)C(=O)N1CCC[C@H]1C(=O)N[C@@H](C)C(=O)N[C@@H](CC(C)C)C(=O)N[C@H](C(=O)N[C@@H](CO)C(=O)N[C@@H](Cc1c[nH]c2ccccc12)C(=O)N[C@H](C(=O)N[C@@H](CCCCN)C(=O)N[C@@H](CCCNC(=N)N)C(=O)N[C@@H](CCCCN)C(=O)N[C@@H](CCCNC(=N)N)C(=O)N[C@@H](CCC(N)=O)C(=O)N[C@@H](CCC(N)=O)C(=O)O)[C@@H](C)CC)[C@@H](C)CC)[C@@H](C)O)[C@@H](C)O)C(C)C)C(C)C [RGD1-melittin],IC50 compared to parental melittin,[1],not significantly different compared to parental melittin
same,ratio of the IC50s of HDFa/SUM159,[2],2.73±0.14
same,subcellular localization / anti-melittin staining,[3],distinctively targeted to the plasma membrane alone
same,"sensitization to cisplatin (cell viability, combination index)",[4],significantly sensitized all three tested cell lines to cisplatin
same,"sensitization to docetaxel (cell viability, combination index)",[5],significantly sensitized all four tested cell lines to docetaxel
same,combination effect with omomyc on cell viability,[6],beneficial effect when combined with omomyc
same,level of PD-L1 (qRT-PCR),[7],significantly reduce
same,PD-L1 expression (immunofluorescence),[8],reduced
same,cell proliferation (Ki-67),[8],reduced
same,induction of apoptosis (cleaved caspase-3),[9],confirmed the anticancer activity
same,combination effect with docetaxel on cell viability,[10],beneficial effect when combined with docetaxel
same,fold lower IC50 than active melittin,[11]; OVCAR3,approximately 6 fold
same,IC50,"[11]; OVCAR3, 24 h",3360 nM
same,fold lower IC50 than active melittin,[12]; COV362,approximately 3.7 fold
same,IC50,"[12]; COV362, 24 h",2100 nM
